The target in one series is GSK3α (Homo sapiens (Human), UniProt P49840). Kind of series: GSK 3α enzyme inhibition (FRET, Z-LYTE). The class given is biochemical. In a few lines: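 GSK3α (500 ng/mL stock) was preincubated 2 hr at RT with compound (4 to 0.004 μg/mL stocks), then FRET peptide (8 μM stock) and ATP (40 μM stock) added for 1 hr. Protease development for 1 hr cleaved unphosphorylated peptide; coumarin/fluorescein emission ratio reported phosphorylation.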

Series [1] has as its system Poly I:C-induced ICAM-1 expression in BEAS2B cells. Description: Poly I:C-induced ICAM-1 expression in BEAS2B cells. The class given is cell-based. As to conditions: Homo sapiens, BEAS-2B, read-out: Poly IC induced ICAM1 in BEAS2B IC50. In a few lines: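 BEAS2B human bronchial epithelial cells pre-incubated with compound for 2 hr, then transfected with 1 μg/mL poly I:C plus Oligofectamine. At 18 hr, surface ICAM-1 measured by cell-based ELISA (HRP, OD450–655). Signal corrected for cell number by crystal violet OD595.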

For a further series, the target named is p38 MAPKα (Homo sapiens (Human), UniProt Q16539). Kind of series: p38 MAPKα enzyme inhibition (FRET, Z-LYTE). It counts as biochemical.
The subject of series [2] is LPS-induced IL-8 release in d-U937 cells. Description: LPS-induced IL-8 release in d-U937 cells. The class given is cell-based. Particulars: Homo sapiens, dU937, read-out: LPS Induced Release of Cytokine in d-937 Cells IL-8 IC50. In outline: (§1)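 PMA-differentiated (100 ng/mL, 48–72 hr) U937 cells pre-incubated with compound 2 hr, then stimulated with LPS (0.1 μg/mL, E. coli O111:B4) for 4 hr. Supernatant TNFα and IL-8 measured by sandwich ELISA; inhibition versus vehicle control, REC50 from concentration-response curve.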

The target in the next series is cSrc (Homo sapiens (Human), UniProt P12931). Description: c-Src enzyme inhibition (FRET, Z-LYTE). It counts as biochemical. In outline:
(§2)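 Z-LYTE FRET kinase assay: enzyme (3000 or 2000 ng/mL stock, respectively) preincubated 2 h at RT with compound (4–0.004 μg/mL stocks), then FRET peptide plus ATP (800 μM stock for c-Src, 60 μM for Syk) added for 1 h. Protease development 1 h; phosphorylation from coumarin/fluorescein emission ratio.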

For another series, the target named is Syk (Homo sapiens (Human), UniProt P43405). Kind of series: Syk enzyme inhibition (FRET, Z-LYTE). It counts as biochemical. In outline: as §2
The test system of series [3] is LPS-induced TNFα release in d-U937 cells. Kind of series: LPS-induced TNFα release in d-U937 cells. It counts as cell-based. Particulars: Homo sapiens, dU937, relative to 10 μg/mL BIRB796, read-out: LPS Induced Release of Cytokine in d-937 Cells TNFα REC50. In a few lines:
as §1

The test system of a further series is d-U937 cells. Kind of series: Cell viability: MTT assay. The class given is cell-based, human. Particulars: 1 μg/mL. In a few lines:
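Differentiated U937 cells were exposed to compound at 1 or 10 μg/mL either 4 h in 5% FCS RPMI1640 or 24 h in 10% FCS RPMI1640, then given MTT for 1 h, DMSO-solubilised and read at 550 nm. Percent viability loss versus 0.5% DMSO vehicle; apparent gains appear negative.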

p38 MAPKα, sequence (Q16539 whole entry): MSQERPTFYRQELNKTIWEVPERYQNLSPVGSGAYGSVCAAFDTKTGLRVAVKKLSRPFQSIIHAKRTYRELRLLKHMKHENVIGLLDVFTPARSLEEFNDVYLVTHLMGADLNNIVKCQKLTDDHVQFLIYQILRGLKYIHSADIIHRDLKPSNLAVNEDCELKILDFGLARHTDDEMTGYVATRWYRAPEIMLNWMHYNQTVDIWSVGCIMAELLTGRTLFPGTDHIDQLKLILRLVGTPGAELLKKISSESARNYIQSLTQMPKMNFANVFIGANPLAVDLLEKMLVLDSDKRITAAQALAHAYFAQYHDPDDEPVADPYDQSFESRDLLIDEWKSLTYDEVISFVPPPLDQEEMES
cSrc, sequence (P12931 whole entry, looked up): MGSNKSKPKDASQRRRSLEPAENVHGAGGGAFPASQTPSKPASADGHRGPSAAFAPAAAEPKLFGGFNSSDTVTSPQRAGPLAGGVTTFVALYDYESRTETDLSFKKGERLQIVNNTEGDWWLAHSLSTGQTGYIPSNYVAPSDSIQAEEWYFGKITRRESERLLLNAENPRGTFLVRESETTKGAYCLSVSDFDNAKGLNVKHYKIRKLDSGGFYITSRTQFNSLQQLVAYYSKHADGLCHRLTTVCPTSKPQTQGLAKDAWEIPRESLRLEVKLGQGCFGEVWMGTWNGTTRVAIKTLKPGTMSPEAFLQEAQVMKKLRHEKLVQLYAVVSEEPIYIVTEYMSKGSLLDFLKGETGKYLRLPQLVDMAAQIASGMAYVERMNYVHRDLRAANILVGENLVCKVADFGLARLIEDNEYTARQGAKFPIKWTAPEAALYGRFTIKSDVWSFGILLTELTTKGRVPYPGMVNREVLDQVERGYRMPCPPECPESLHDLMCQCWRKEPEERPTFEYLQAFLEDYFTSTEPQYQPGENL
GSK3α, sequence (P49840 whole entry): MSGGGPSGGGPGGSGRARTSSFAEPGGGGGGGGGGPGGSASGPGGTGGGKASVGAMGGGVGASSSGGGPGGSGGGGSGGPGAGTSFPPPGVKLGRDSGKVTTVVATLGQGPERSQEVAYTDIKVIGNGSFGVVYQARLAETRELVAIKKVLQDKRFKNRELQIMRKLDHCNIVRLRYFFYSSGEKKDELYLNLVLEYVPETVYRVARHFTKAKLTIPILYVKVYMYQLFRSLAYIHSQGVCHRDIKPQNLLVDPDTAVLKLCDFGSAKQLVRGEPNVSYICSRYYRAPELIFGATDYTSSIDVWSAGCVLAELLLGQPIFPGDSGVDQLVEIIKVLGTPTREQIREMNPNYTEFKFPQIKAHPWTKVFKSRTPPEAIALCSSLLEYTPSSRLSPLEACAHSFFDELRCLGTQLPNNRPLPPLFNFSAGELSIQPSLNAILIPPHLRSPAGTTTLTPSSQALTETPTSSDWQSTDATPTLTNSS

Regarding `CC(C)c1cc(NC(=O)Nc2ccc(Oc3cc(Nc4ccc5[nH]ncc5c4)ncn3)c3ccccc23)n(-c2ccc(=O)n(CCO)c2)n1` [Example 84, 1-(4-((6-((1H-indazol-5-yl)amino)pyrimidin-4-yl)oxy)naphthalen-1-yl)-3-(1-(1-(2-hydroxyethyl)-6-oxo-1,6-dihydropyridin-3-yl)-3-isopropyl-1H-pyrazol-5-yl)urea], the IC50 on GSK3α was 278 nM; in series [1], above 152 nM; against p38 MAPKα, below 1.5 nM; in series [2], 217 nM; against cSrc, 3 nM; at Syk it was 12 nM. Moreover, the EC50 in series [3] is 147 nM. Further, the “MTT Assay Cell viability at time point in d-U937 cells 4 h” value in the series with d-U937 cells was “−ve (−ve and +ve indicate that the value is below and above respectively, the no significant effect threshold, defined as 30% inhibition at 1 μg/mL at the time point indicated.)”. The “MTT Assay Cell viability at time point in d-U937 cells 24 h” value with d-U937 cells is “−ve (−ve and +ve indicate that the value is below and above respectively, the no significant effect threshold, defined as 30% inhibition at 1 μg/mL at the time point indicated.)”.
Turning to `COc1ccc(-n2nc(C(C)C)cc2NC(=O)Nc2ccc(Oc3ccnc(Nc4ccc5[nH]nc(OCCN6CCOCC6)c5c4)n3)c3ccccc23)cc1` [Example 44, 1-(3-isopropyl-1-(4-methoxyphenyl)-1H-pyrazol-5-yl)-3-(4-((2-((3-(2-morpholinoethoxy)-1H-indazol-5-yl)amino)pyrimidin-4-yl)oxy)naphthalen-1-yl)urea], the IC50 against GSK3α was 203 nM; in series [1], 1.4 nM; against p38 MAPKα it was 5 nM; in series [2], 0.8 nM; on cSrc it was 2 nM; against Syk, 2 nM. Moreover, the EC50 in series [3] came to 0.4 nM. Also, in the series on d-U937 cells, the “MTT Assay Cell viability at time point in d-U937 cells 4 h” value is “−ve (−ve and +ve indicate that the value is below and above respectively, the no significant effect threshold, defined as 30% inhibition at 1 μg/mL at the time point indicated.)”. The “MTT Assay Cell viability at time point in d-U937 cells 24 h” value in the series on d-U937 cells is “−ve (−ve and +ve indicate that the value is below and above respectively, the no significant effect threshold, defined as 30% inhibition at 1 μg/mL at the time point indicated.)”.
On to `COc1ccc(-n2nc(C(C)(C)C)cc2NC(=O)Nc2ccc(Oc3ccnc(Nc4ccc5c(cnn5CCN5CCOCC5)c4)n3)c3ccccc23)cc1` [Example 43, 1-(3-(tert-butyl)-1-(4-methoxyphenyl)-1H-pyrazol-5-yl)-3-(4-((2-((1-(2-morpholinoethyl)-1H-indazol-5-yl)amino)pyrimidin-4-yl)oxy)naphthalen-1-yl)urea], for which the IC50 against GSK3α was found to be 485 nM; in series [1] it was 2.4 nM; at p38 MAPKα it was 15 nM; in series [2] it was 1.8 nM; on cSrc it was 2 nM; at Syk, 21 nM. In series [3], the EC50 turned out to be 1.3 nM. The “MTT Assay Cell viability at time point in d-U937 cells 4 h” value in the series on d-U937 cells was “−ve (−ve and +ve indicate that the value is below and above respectively, the no significant effect threshold, defined as 30% inhibition at 1 μg/mL at the time point indicated.)”. Also, in the series with d-U937 cells, the “MTT Assay Cell viability at time point in d-U937 cells 24 h” value was “−ve (−ve and +ve indicate that the value is below and above respectively, the no significant effect threshold, defined as 30% inhibition at 1 μg/mL at the time point indicated.)”.
On to `COc1ccc(-n2nc(C(C)(C)C)cc2NC(=O)Nc2ccc(Oc3ccnc(Nc4ccc5[nH]nc(OCCN6CCOCC6)c5c4)n3)c3ccccc23)cc1` [Example 45, 1-(3-(tert-butyl)-1-(4-methoxyphenyl)-1H-pyrazol-5-yl)-3-(4-((2-((3-(2-morpholinoethoxy)-1H-indazol-5-yl)amino)pyrimidin-4-yl)oxy)naphthalen-1-yl)urea], for which the IC50 against GSK3α was 407 nM; in series [1] it was 1.2 nM; on p38 MAPKα, 17 nM; in series [2], 1.6 nM; on cSrc, 5 nM; against Syk, 3 nM. Also, the EC50 in series [3] amounted to 0.9 nM. In addition, the “MTT Assay Cell viability at time point in d-U937 cells 4 h” value in the series with d-U937 cells is “−ve (−ve and +ve indicate that the value is below and above respectively, the no significant effect threshold, defined as 30% inhibition at 1 μg/mL at the time point indicated.)”. The “MTT Assay Cell viability at time point in d-U937 cells 24 h” value with d-U937 cells was “−ve (−ve and +ve indicate that the value is below and above respectively, the no significant effect threshold, defined as 30% inhibition at 1 μg/mL at the time point indicated.)”.
As for `CC(C)(C)c1cc(NC(=O)Nc2ccc(Oc3cc(Nc4ccc5[nH]ncc5c4)ncn3)c3ccccc23)n(-c2ccc(=O)n(CCO)c2)n1` [Example 14, 1-(4-((6-((1H-Indazol-5-yl)amino)pyrimidin-4-yl)oxy)naphthalen-1-yl)-3-(3-(tert-butyl)-1-(1-(2-hydroxyethyl)-6-oxo-1,6-dihydropyridin-3-yl)-1H-pyrazol-5-yl)urea], the concentration for half-maximal inhibition (IC50) was 1090 nM against GSK3α; 52.4 nM in series [1]; 3 nM on p38 MAPKα; 18.4 nM in series [2]; 2 nM at cSrc; 7 nM against Syk. Further, in series [3], the EC50 came out at 7.5 nM. Moreover, the “MTT Assay Cell viability at time point in d-U937 cells 4 h” value in the series on d-U937 cells is “−ve (−ve and +ve indicate that the value is below and above respectively, the no significant effect threshold, defined as 30% inhibition at 1 μg/mL at the time point indicated.)”. The “MTT Assay Cell viability at time point in d-U937 cells 24 h” value with d-U937 cells is “−ve (−ve and +ve indicate that the value is below and above respectively, the no significant effect threshold, defined as 30% inhibition at 1 μg/mL at the time point indicated.)”.
Take `COc1ccc(-n2nc(C(C)(C)C)cc2NC(=O)Nc2ccc(Oc3ccnc(Nc4ccc5[nH]ccc5c4)n3)c3ccccc23)cn1` [Example 82, 1-(4-((2-((1H-indol-5-yl)amino)pyrimidin-4-yl)oxy)naphthalen-1-yl)-3-(3-(tert-butyl)-1-(6-methoxypyridin-3-yl)-1H-pyrazol-5-yl)urea]: the IC50 at GSK3α is above 1560 nM; in series [1] it was 2.7 nM; on p38 MAPKα, 63 nM; in series [2], 2.4 nM; against cSrc, 10 nM; at Syk it was 26 nM. Further, the EC50 in series [3] stood at 1.8 nM. For the same compound, the “MTT Assay Cell viability at time point in d-U937 cells 4 h” value in the series with d-U937 cells is “−ve (−ve and +ve indicate that the value is below and above respectively, the no significant effect threshold, defined as 30% inhibition at 1 μg/mL at the time point indicated.)”. In addition, the “MTT Assay Cell viability at time point in d-U937 cells 24 h” value with d-U937 cells is “−ve (−ve and +ve indicate that the value is below and above respectively, the no significant effect threshold, defined as 30% inhibition at 1 μg/mL at the time point indicated.)”.
Regarding `Cc1ccc(-n2nc(C(C)(C)C)cc2NC(=O)Nc2ccc(Oc3ccnc(Nc4ccc5c(c4)CC(=O)N5C)n3)c3ccccc23)cc1` [Example 20, 1-(3-(tert-butyl)-1-(p-tolyl)-1H-pyrazol-5-yl)-3-(4-((2-((1-methyl-2-oxoindolin-5-yl)amino)pyrimidin-4-yl)oxy)naphthalen-1-yl)urea], the concentration for half-maximal inhibition (IC50) against GSK3α was found to be 900 nM; in series [1], 6.3 nM; against p38 MAPKα, 61 nM; in series [2], 2.2 nM; at cSrc, 113 nM; on Syk, 6 nM. Further, the EC50 in series [3] stood at 1.7 nM. Moreover, in the series on d-U937 cells, the “MTT Assay Cell viability at time point in d-U937 cells 4 h” value was “−ve (−ve and +ve indicate that the value is below and above respectively, the no significant effect threshold, defined as 30% inhibition at 1 μg/mL at the time point indicated.)”. Moreover, the “MTT Assay Cell viability at time point in d-U937 cells 24 h” value in the series on d-U937 cells was “−ve (−ve and +ve indicate that the value is below and above respectively, the no significant effect threshold, defined as 30% inhibition at 1 μg/mL at the time point indicated.)”.

The values are drawn from US9249125B2, “Pyrazole derivatives as p38 MAP inhibitors” (RESPIVERT LIMITED, priority 2012, dated 2016).
